Target: 5HT3a receptor expressed in HEK-293T cells (Homo sapiens (Human), UniProt P46098)
Test: Inhibition of Ca flux activity of 5HT3 in vitro assay
Format: cell-based
Conditions: calcium flux, 5HT 216 nM, approximate values
Summary of the method: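 HEK-293T cells transiently transfected with human 5HT3a, loaded 1 hour at 37° C with calcium dye in HBSS/20 mM HEPES, preincubated with compound (10^−7 to 10^−10, half-log) 10 minutes at room temperature.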

Sequence of 5HT3a receptor expressed in HEK-293T cells (P46098 24-478): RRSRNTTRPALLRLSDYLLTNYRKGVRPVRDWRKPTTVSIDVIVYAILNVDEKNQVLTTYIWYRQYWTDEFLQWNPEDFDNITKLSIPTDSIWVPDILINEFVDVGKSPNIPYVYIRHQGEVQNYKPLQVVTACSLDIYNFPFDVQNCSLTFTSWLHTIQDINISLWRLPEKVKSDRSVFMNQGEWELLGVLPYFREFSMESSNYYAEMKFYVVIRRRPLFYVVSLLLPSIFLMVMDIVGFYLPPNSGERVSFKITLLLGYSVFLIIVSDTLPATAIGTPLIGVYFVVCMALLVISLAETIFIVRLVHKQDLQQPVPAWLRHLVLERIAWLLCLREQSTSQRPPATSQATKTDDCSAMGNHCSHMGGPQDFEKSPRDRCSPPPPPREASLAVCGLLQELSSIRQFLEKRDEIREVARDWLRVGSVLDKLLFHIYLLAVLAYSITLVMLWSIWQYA

| Structure (SMILES) | IC50 [nM] |
| --- | --- |
| CN1[C@@H]2CC[C@H]1CC(NC(=O)c1cn(S(C)(=O)=O)c3ccccc13)C2 (stereo partly drawn) [Example 74, N-((1R,3R,5S)-8-methyl-8-azabicyclo[3.2.1]octan-3-yl)-1-(methylsulfonyl)-1H-indole-3-carboxamide, 2,2,2-trifluoroacetate] | 0.42 |
| CN1[C@@H]2CC[C@H]1CC(NC(=O)c1cn(CC(F)F)c3ccc(F)cc13)C2 (stereo partly drawn) [Example 75, 1-(2,2-difluoroethyl)-5-fluoro-N-((1R,3R,5S)-8-methyl-8-azabicyclo[3.2.1]octan-3-yl)-1H-indole-3-carboxamide, 2,2,2-trifluoroacetate] | 3.15 |
| CN1[C@@H]2CC[C@H]1CC(NC(=O)c1cn(CC(F)F)c3ncccc13)C2 (stereo partly drawn) [Example 76, 1-(2,2-difluoroethyl)-N-((1R,3R,5S)-8-methyl-8-azabicyclo[3.2.1]octan-3-yl)-1H-pyrrolo[2,3-b]pyridine-3-carboxamide, 2,2,2-trifluoroacetate] | 1.22 |
| CN1[C@@H]2CCC[C@H]1CC(NC(=O)c1cn(CC(F)F)c3ncccc13)C2 (stereo partly drawn) [Example 77, 1-(2,2-difluoroethyl)-N-((1R,3R,5S)-9-methyl-9-azabicyclo[3.3.1]nonan-3-yl)-1H-pyrrolo[2,3-b]pyridine-3-carboxamide, 2,2,2-trifluoroacetate] | 10.5 |
| CS(=O)(=O)n1cc(C(=O)NC2C[C@H]3COC[C@@H](C2)N3)c2cc(F)ccc21 (stereo partly drawn) [Example 78, N-((1R,5S,7S)-3-oxa-9-azabicyclo[3.3.1]nonan-7-yl)-5-fluoro-1-(methylsulfonyl)-1H-indole-3-carboxamide, 2,2,2-trifluoroacetate] | 4.81 |
| CN1C2COCC1CC(NC(=O)c1cn(CCF)c3ccccc13)C2 [Example 79, 1-(2-fluoroethyl)-N-((1R,5S,7S)-9-methyl-3-oxa-9-azabicyclo-[3.3.1]nonan-7-yl)-1H-indole-3-carboxamide, 2,2,2-trifluoroacetate] | 0.41 |
| CN1[C@@H]2COC[C@H]1CC(NC(=O)c1cn(C(F)C(F)(F)F)c3ncccc13)C2 (stereo partly drawn) [Example 81, N-((1R,5S,7S)-9-methyl-3-oxa-9-azabicyclo[3.3.1]nonan-7-yl)-1-(1,2,2,2-tetrafluoroethyl)-1H-pyrrolo[2,3-b]pyridine-3-carboxamide, 2,2,2-trifluoroacetate] | 1.44 |
| O=C(NC1C[C@H]2COC[C@@H](C1)N2)c1cn(CC(F)F)c2ncccc12 (stereo partly drawn) [Example 82, N-((1R,5S,7S)-3-oxa-9-azabicyclo[3.3.1]nonan-7-yl)-1-(2,2-difluoroethyl)-1H-pyrrolo[2,3-b]pyridine-3-carboxamide, 2,2,2-trifluoroacetate] | > 1000 |
| CN1[C@@H]2CC[C@H]1CC(OC(=O)c1cn([C@@H]3CCOC3)c3ccccc13)C2 (stereo partly drawn) [Example 83, (1R,3R,5S)-8-methyl-8-azabicyclo[3.2.1]octan-3-yl 1-((R)-tetrahydrofuran-3-yl)-1H-indole-3-carboxylate, 2,2,2-trifluoroacetate] | 1.04 |
| CN1[C@@H]2CC[C@H]1CC(OC(=O)c1c3n(c4ccccc14)CCCCO3)C2 (stereo partly drawn) [Example 84, (1R,3R,5S)-8-methyl-8-azabicyclo[3.2.1]octan-3-yl 2,3,4,5-tetrahydro-[1,3]oxazepino[3,2-a]indole-11-carboxylate, 2,2,2-trifluoroacetate] | 1.64 |
| CN1[C@@H]2CC[C@H]1CC(OC(=O)c1c3n(c4ccccc14)CCCO3)C2 (stereo partly drawn) [Example 85, (1R,3R,5S)-8-methyl-8-azabicyclo[3.2.1]octan-3-yl 3,4-dihydro-2H-[1,3]oxazino[3,2-a]indole-10-carboxylate, 2,2,2-trifluoroacetate] | 1.04 |
| CN1[C@@H]2CC[C@H]1CC(OC(=O)c1cn(S(C)(=O)=O)c3ccc(F)cc13)C2 (stereo partly drawn) [Example 86, (1R,3R,5S)-8-methyl-8-azabicyclo[3.2.1]octan-3-yl 5-fluoro-1-(methylsulfonyl)-1H-indole-3-carboxylate, 2,2,2-trifluoroacetate] | 2.48 |
| CN1[C@@H]2CCC[C@H]1CC(OC(=O)c1cn(CCF)c3ccccc13)C2 (stereo partly drawn) [Example 87, (1R,3R,5S)-9-methyl-9-azabicyclo[3.3.1]nonan-3-yl 1-(2-fluoroethyl)-1H-indole-3-carboxylate, 2,2,2-trifluoroacetate] | 0.18 |
| Cc1c(C(=O)OC2C[C@H]3CCC[C@@H](C2)N3C)c2ccccc2n1CCF (stereo partly drawn) [Example 88, (1R,3R,5S)-9-methyl-9-azabicyclo[3.3.1]nonan-3-yl 1-(2-fluoroethyl)-2-methyl-1H-indole-3-carboxylate, 2,2,2-trifluoroacetate] | 0.22 |
| CN1[C@@H]2CCC[C@H]1CC(OC(=O)c1cn(CC(F)(F)F)c3ccc(F)cc13)C2 (stereo partly drawn) [Example 89, (1R,3R,5S)-9-methyl-9-azabicyclo[3.3.1]nonan-3-yl 5-fluoro-1-(2,2,2-trifluoroethyl)-1H-indole-3-carboxylate, 2,2,2-trifluoroacetate] | 0.66 |
| CN1[C@@H]2CC[C@H]1C[C@@H](NC(=O)c1nn(CC(F)F)c3ccccc13)C2 [Example 90, 1-(2,2-difluoroethyl)-N-((1R,3R,5S)-8-methyl-8-azabicyclo-[3.2.1]octan-3-yl)-1H-indazole-3-carboxamide, 2,2,2-trifluoroacetate] | 0.75 |
| O=C(O[C@H]1CC[N@@]2CCO[C@@H]1C2)c1cn(CC(F)F)c2ccc(F)cc12 [Example 91, (1S,5R,6S)-4-oxa-1-azabicyclo[3.3.1]nonan-6-yl 1-(2,2-difluoroethyl)-5-fluoro-1H-indole-3-carboxylate, 2,2,2-trifluoroacetate] | > 1000 |
| CC(C)S(=O)(=O)n1cc(C(=O)NC2CC3COCC(C2)N3C)c2cc(F)ccc21 [Example 93, 5-fluoro-1-(isopropylsulfonyl)-N-((1R,5S,7S)-9-methyl-3-oxa-9-azabicyclo[3.3.1]nonan-7-yl)-1H-indole-3-carboxamide, 2,2,2-trifluoroacetate] | 1.39 |
| CN1[C@@H]2CC[C@H]1CC(OC(=O)c1cn(CC(F)(F)F)c3ccccc13)C2 (stereo partly drawn) [Example 95, (1R,3R,5S)-8-methyl-8-azabicyclo[3.2.1]octan-3-yl 1-(2,2,2-trifluoroethyl)-1H-indole-3-carboxylate, 2,2,2-trifluoroacetate] | 0.89 |
| CN1C2CCC1CC(OC(=O)c1cn([C@H]3CCOC3)c3ccccc13)C2 (stereo partly drawn) [Example 96, (1R,3R,5S)-8-methyl-8-azabicyclo[3.2.1]octan-3-yl 1-((S)-tetrahydrofuran-3-yl)-1H-indole-3-carboxylate, 2,2,2-trifluoroacetate] | 0.83 |
| CN1[C@@H]2CCC[C@H]1CC(NC(=O)c1cn(CC(F)F)c3ccc(F)cc13)C2 (stereo partly drawn) [Example 98, 1-(2,2-difluoroethyl)-5-fluoro-N-((1R,3R,5S)-9-methyl-9-azabicyclo[3.3.1]nonan-3-yl)-1H-indole-3-carboxamide, 2,2,2-trifluoroacetate] | 5.45 |
| CN1[C@@H]2COC[C@H]1CC(OC(=O)c1cn(S(C)(=O)=O)c3ccc(F)cc13)C2 (stereo partly drawn) [Example 99, (1R,5S,7S)-9-methyl-3-oxa-9-azabicyclo[3.3.1]nonan-7-yl 5-fluoro-1-(methylsulfonyl)-1H-indole-3-carboxylate, 2,2,2-trifluoroacetate] | 0.29 |
| CN1[C@@H]2CCC[C@H]1CC(NC(=O)c1cn(S(C)(=O)=O)c3ccc(F)cc13)C2 (stereo partly drawn) [Example 100, 5-fluoro-N-((1R,3R,5S)-9-methyl-9-azabicyclo[3.3.1]nonan-3-yl)-1-(methylsulfonyl)-1H-indole-3-carboxamide, 2,2,2-trifluoroacetate] | 12.8 |
| O=C(OC1CC2COCC(C1)N2)c1cn(CC(F)F)c2ncccc12 [Example 101, (1R,5S,7S)-3-oxa-9-azabicyclo[3.3.1]nonan-7-yl 1-(2,2-difluoroethyl)-1H-pyrrolo[2,3-b]pyridine-3-carboxylate, 2,2,2-trifluoroacetate] | > 1000 |
| CN1C2CCC1CC(NC(=O)c1cn(CC(F)(F)F)c3ncccc13)C2 [Example 102, N-((1R,3R,5S)-8-methyl-8-azabicyclo[3.2.1]octan-3-yl)-1-(2,2,2-trifluoroethyl)-1H-pyrrolo[2,3-b]pyridine-3-carboxamide, 2,2,2-trifluoroacetate] | > 1000 |
| CN1[C@@H]2CCC[C@H]1CC(OC(=O)c1cn(CC(F)(F)F)c3ncccc13)C2 (stereo partly drawn) [Example 103, (1R,3R,5S)-9-methyl-9-azabicyclo[3.3.1]nonan-3-yl 1-(2,2,2-trifluoroethyl)-1H-pyrrolo[2,3-b]pyridine-3-carboxylate, 2,2,2-trifluoroacetate] | 8.2 |
| O=C(NC1CC2COCC(C1)N2C(F)(F)F)c1cn(CC(F)F)c2ncccc12 [Example 104, 1-(2,2-difluoroethyl)-N-((1R,5S,7S)-9-(trifluoromethyl)-3-oxa-9-azabicyclo[3.3.1]nonan-7-yl)-1H-pyrrolo[2,3-b]pyridine-3-carboxamide, 2,2,2-trifluoroacetate] | > 1000 |
| O=C(NC1C[C@H]2COC[C@@H](C1)N2)c1cn(CC(F)(F)F)c2ncc(F)cc12 (stereo partly drawn) [Example 105, N-((1R,5S,7S)-3-oxa-9-azabicyclo[3.3.1]nonan-7-yl)-5-fluoro-1-(2,2,2-trifluoroethyl)-1H-pyrrolo[2,3-b]pyridine-3-carboxamide, 2,2,2-trifluoroacetate] | 34.1 |
| CN1[C@@H]2COC[C@H]1CC(NC(=O)c1cn(-c3ncccn3)c3ccccc13)C2 (stereo partly drawn) [Example 107, N-((1R,5S,7S)-9-methyl-3-oxa-9-azabicyclo[3.3.1]nonan-7-yl)-1-(pyrimidin-2-yl)-1H-indole-3-carboxamide, 2,2,2-trifluoroacetate] | 1.1 |
| CN1[C@@H]2COC[C@H]1CC(NC(=O)c1cn(CC(C)(F)F)c3ncccc13)C2 (stereo partly drawn) [Example 108, 1-(2,2-difluoropropyl)-N-((1R,5S,7S)-9-methyl-3-oxa-9-azabicyclo[3.3.1]nonan-7-yl)-1H-pyrrolo[2,3-b]pyridine-3-carboxamide, 2,2,2-trifluoroacetate] | 1.05 |

— US9303045B2, “5-HT3 receptor antagonists” (Takeda Pharmaceutical Company Limited, priority 2013, dated 2016)
